In ChEMBL document CHEMBL5634153, “Design, synthesis and preclinical evaluation of muscarine receptor antagonists via a scaffold-hopping approach” (Eur J Med Chem, 2023):
Active and inactive are the calls of the source. The rule behind the calls is not given here.

What was measured:
[1] = biological target: T1, Muscarinic acetylcholine receptor M5 (Homo sapiens, UniProt P08912); assay: Displacement of [3H]NMS from human muscarinic M5 receptor expressed in CHO-K1 cell membrane assessed as inhibition constant incubated for 90 mins by competitive radioligand binding assay; type: cell membranes
T1 sequence (P08912 whole entry): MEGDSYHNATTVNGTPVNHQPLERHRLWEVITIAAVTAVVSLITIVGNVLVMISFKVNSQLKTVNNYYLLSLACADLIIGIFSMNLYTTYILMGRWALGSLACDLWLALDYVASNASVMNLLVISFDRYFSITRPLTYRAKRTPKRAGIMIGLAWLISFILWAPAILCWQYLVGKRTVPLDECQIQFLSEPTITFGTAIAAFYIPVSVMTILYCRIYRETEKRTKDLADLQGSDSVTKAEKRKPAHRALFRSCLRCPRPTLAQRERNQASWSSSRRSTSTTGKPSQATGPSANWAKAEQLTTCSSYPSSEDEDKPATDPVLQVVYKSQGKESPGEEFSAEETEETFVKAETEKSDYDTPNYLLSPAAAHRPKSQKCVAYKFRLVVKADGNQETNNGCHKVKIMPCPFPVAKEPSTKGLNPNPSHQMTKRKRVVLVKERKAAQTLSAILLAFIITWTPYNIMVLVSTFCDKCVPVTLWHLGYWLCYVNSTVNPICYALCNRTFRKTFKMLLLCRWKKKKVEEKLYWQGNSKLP

[2] = Cytotoxicity against CHO-K1 cells expressing human muscarinic receptor M1 incubated for 72 hrs by MTT assay; type: toxicity, cell-based; conditions: Chinese hamster (Cricetulus griseus)
[3] = biological target: T2, Muscarinic acetylcholine receptor M2 (Homo sapiens, UniProt P08172); assay: Displacement of [3H]NMS from human muscarinic M2 receptor expressed in CHO-K1 cell membrane assessed as inhibition constant incubated for 90 mins by competitive radioligand binding assay; type: cell membranes
T2 sequence (P08172 whole entry): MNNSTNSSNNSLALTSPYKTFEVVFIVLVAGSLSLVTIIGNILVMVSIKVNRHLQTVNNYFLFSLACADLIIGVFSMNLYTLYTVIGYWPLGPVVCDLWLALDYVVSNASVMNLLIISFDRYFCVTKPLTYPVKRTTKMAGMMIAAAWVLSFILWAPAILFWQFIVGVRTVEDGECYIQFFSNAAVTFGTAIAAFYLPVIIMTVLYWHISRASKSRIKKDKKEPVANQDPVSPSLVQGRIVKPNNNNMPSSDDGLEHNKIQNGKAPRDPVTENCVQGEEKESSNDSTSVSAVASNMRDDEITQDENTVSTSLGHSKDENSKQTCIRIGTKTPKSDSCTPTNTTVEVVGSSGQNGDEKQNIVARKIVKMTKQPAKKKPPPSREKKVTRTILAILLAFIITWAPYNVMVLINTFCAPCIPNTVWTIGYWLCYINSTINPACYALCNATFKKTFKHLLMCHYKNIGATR

[4] = Lipophilicity, log P of compound at pH 7.4 by HPLC analysis; type: physicochemical; conditions: buffer
[5] = biological target: T3, Muscarinic acetylcholine receptor M1 (Homo sapiens, UniProt P11229); assay: Displacement of [3H]NMS from human muscarinic M1 receptor expressed in CHO-K1 cell membrane assessed as inhibition constant incubated for 90 mins by competitive radioligand binding assay; type: cell membranes
T3 sequence (P11229 whole entry): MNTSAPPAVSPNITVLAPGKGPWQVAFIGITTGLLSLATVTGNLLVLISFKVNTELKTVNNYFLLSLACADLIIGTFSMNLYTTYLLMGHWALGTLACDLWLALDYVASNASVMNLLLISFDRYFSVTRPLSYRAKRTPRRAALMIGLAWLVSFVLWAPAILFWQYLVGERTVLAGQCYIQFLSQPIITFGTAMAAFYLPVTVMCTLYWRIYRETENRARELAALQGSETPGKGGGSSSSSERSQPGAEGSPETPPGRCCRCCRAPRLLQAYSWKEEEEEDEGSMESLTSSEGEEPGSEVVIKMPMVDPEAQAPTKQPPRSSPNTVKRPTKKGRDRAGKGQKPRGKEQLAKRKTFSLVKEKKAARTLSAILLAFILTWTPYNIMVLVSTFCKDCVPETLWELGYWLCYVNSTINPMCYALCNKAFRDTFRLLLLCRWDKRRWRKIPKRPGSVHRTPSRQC

[6] = biological target: T4, Muscarinic acetylcholine receptor M4 (Homo sapiens, UniProt P08173); assay: Displacement of [3H]NMS from human muscarinic M4 receptor expressed in CHO-K1 cell membrane assessed as inhibition constant incubated for 90 mins by competitive radioligand binding assay; type: cell membranes
T4 sequence (P08173 whole entry): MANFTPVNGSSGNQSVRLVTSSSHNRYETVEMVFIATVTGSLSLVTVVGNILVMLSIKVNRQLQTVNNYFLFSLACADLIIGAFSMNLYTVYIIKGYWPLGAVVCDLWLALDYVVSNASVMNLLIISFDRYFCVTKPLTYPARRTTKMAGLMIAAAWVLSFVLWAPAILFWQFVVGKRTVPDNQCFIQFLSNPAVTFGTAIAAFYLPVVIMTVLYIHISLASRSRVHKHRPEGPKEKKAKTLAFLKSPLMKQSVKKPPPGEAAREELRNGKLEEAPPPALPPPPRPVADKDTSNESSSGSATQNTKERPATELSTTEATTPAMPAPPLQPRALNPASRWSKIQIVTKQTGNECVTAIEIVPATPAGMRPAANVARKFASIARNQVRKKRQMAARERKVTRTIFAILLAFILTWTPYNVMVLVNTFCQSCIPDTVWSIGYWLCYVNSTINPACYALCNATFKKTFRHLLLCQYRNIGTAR

[7] = biological target: Muscarinic acetylcholine receptor M3 (Homo sapiens, UniProt P20309); assay: Displacement of [3H]NMS from human muscarinic M3 receptor expressed in CHO-K1 cell membrane assessed as inhibition constant incubated for 90 mins by competitive radioligand binding assay; type: cell membranes
Chain of Muscarinic acetylcholine receptor M3 (P20309 whole entry): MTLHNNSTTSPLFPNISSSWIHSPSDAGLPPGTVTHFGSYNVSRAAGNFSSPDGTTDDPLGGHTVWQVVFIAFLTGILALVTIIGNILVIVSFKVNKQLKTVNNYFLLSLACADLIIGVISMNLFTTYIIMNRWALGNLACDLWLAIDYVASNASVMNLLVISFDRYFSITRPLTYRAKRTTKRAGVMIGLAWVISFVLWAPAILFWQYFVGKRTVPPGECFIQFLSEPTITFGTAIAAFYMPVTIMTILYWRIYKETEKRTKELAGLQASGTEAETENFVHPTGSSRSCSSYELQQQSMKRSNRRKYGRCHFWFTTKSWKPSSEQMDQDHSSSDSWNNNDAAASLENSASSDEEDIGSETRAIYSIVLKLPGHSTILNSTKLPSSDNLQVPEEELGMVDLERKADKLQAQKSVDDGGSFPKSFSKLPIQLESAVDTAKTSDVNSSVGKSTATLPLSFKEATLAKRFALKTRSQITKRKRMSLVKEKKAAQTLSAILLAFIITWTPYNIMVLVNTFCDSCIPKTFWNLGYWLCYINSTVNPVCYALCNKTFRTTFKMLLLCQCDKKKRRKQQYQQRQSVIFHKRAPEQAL

[8] = biological target: T5, Muscarinic acetylcholine receptor M1 (Homo sapiens) (UniProt P11229); assay: Antagonist activity at human muscarinic M1 receptor expressed in CHO-K1 cell membrane assessed as reduction in carbachol-induced ca2+ influx by fluorescence based assay; type: functional, cell membranes; conditions: filed as antagonist
T5 sequence (whole entry): T3 sequence (P11229 whole entry)

[9] = biological target: T5, Muscarinic acetylcholine receptor M1 (Homo sapiens); assay: Agonist activity at human muscarinic M1 receptor expressed in CHO-K1 cell membrane upto 100 uM by fluorescence based assay; type: functional, cell membranes
[10] = species on record: Homo sapiens; assay: Selectivity ratio of Ki for human muscarinic M3 receptor expressed in CHO-K1 cells to Ki for human muscarinic M5 receptor expressed in CHO-K1 cells; type: cell-based
[11] = species on record: Homo sapiens; assay: Selectivity ratio of Ki for human muscarinic M4 receptor expressed in CHO-K1 cells to Ki for human muscarinic M5 receptor expressed in CHO-K1 cells; type: cell-based
[12] = biological target: Muscarinic acetylcholine receptor M2 and M5 (Homo sapiens) (UniProt P08172+P08912); assay: Selectivity ratio of Ki for human muscarinic M2 receptor expressed in CHO-K1 cells to Ki for human muscarinic M5 receptor expressed in CHO-K1 cells; type: cell-based
[13] = species on record: Homo sapiens; assay: Selectivity ratio of Ki for human muscarinic M1 receptor expressed in CHO-K1 cells to Ki for human muscarinic M5 receptor expressed in CHO-K1 cells; type: cell-based
[14] = biological target: Muscarinic acetylcholine receptor M1 and M3 (Homo sapiens) (UniProt P20309+P11229); assay: Selectivity ratio of Ki for human muscarinic M1 receptor expressed in CHO-K1 cells to Ki for human muscarinic M3 receptor expressed in CHO-K1 cells; type: cell-based
Chain of Muscarinic acetylcholine receptor M1 and M3 (Homo sapiens) (P20309 whole entry, looked up, one chain of several): as the sequence (P20309 whole entry) above

[15] = species on record: Homo sapiens; assay: Selectivity ratio of Ki for human muscarinic M5 receptor expressed in CHO-K1 cells to Ki for human muscarinic M3 receptor expressed in CHO-K1 cells; type: cell-based
[16] = species on record: Homo sapiens; assay: Selectivity ratio of Ki for human muscarinic M4 receptor expressed in CHO-K1 cells to Ki for human muscarinic M3 receptor expressed in CHO-K1 cells; type: cell-based
[17] = biological target: Muscarinic acetylcholine receptors; M2 & M3 (Homo sapiens) (UniProt P20309+P08172); assay: Selectivity ratio of Ki for human muscarinic M2 receptor expressed in CHO-K1 cells to Ki for human muscarinic M3 receptor expressed in CHO-K1 cells; type: cell-based
Chain of Muscarinic acetylcholine receptors; M2 & M3 (Homo sapiens) (P20309 whole entry, looked up, one chain of several): as the sequence (P20309 whole entry) above

SMILES	Ki [1] [nM]	IC50 at 72 h [2] [µM]	Ki [3] [nM]	logP [4]	Ki [5] [nM]	Ki [6] [nM]	Ki [7] [nM]	Activity [8]	Activity [9]	Ratio Ki [10]	Ratio Ki [11]	Ratio Ki [12]	Ratio Ki [13]	Ratio Ki [14]	Ratio Ki [15]	Ratio Ki [16]	Ratio Ki [17]
CN1[C@@H]2CC[C@H]1C[C@H](OC(=O)N(c1ccccc1)c1ccccc1)C2	75	≥ 100	222	1.58	44	50	108	Dose-Dependent Effect	inactive								
CN1[C@@H]2CC[C@H]1C[C@@H](OC(=O)N(c1ccccc1)c1ccccc1)C2	> 1000	≥ 100	> 1000	2.69	> 1000	> 1000	> 1000										
CN1CCCC(Oc2nc3ccccc3n2-c2ccccc2)C1 (racemic)	77	≥ 100	385	3.2	288	152	236										
CN1CCC(OC(=O)N(c2ccccc2)c2ccccc2)CC1	255	≥ 100	> 1000	2.11	255	158	121	Dose-Dependent Effect	inactive								
CN1CCCC(OC(=O)N(c2ccccc2)c2ccccc2)C1 (centres undefined)	> 1000	≥ 100	> 1000	2.69	> 1000	> 1000	> 1000										
CN1CCC(Oc2nc3ccccc3n2-c2ccccc2)CC1	18	≥ 100	108	2.94	20	32	21	Dose-Dependent Effect	inactive								
CN1CCC(Oc2nc3ccccc3n2-c2ccccc2)C1 (racemic)	14	≥ 100	258	2.81	51	65	60	Dose-Dependent Effect	inactive	4	4	18	4				
CN1CC(Oc2nc3ccccc3n2-c2ccccc2)C1	> 1000	≥ 100	> 1000	2.6	> 1000	> 1000	> 1000										
CN1[C@@H]2C[C@@H](Oc3nc4ccccc4n3-c3ccccc3)C[C@H]1[C@@H]1O[C@@H]12	164	≥ 100	> 1000	3.04	285	189	350										
CN1[C@@H]2C[C@@H]3C[C@H]1C(O3)C2OC(=O)N(c1ccccc1)c1ccccc1 (some centres undefined)	> 1000	≥ 100	> 1000	1.58	> 1000	> 1000	> 1000	Dose-Dependent Effect	inactive								
CN1[C@@H]2CC[C@H]1C[C@@H](Oc1nc3ccccc3n1-c1ccccc1)C2	> 1000	≥ 100	442	2.73	101	201	46							2.5	2.5	2.5	2.5
CN1CCN(Cc2nc3cccnc3n2-c2ccccc2C(=O)O)CC1			> 1000			> 1000	> 1000										
CN1CC(OC(=O)N(c2ccccc2)c2ccccc2)C1	> 1000	≥ 100	> 1000	1.82	> 1000	244	339										
CN1CCC(OC(=O)N(c2ccccc2)c2ccccc2)C1 (centres undefined)	105	≥ 100	> 1000	1.91	217	156	123	Dose-Dependent Effect	inactive								
CN1[C@@H]2CC[C@H]1C[C@H](Oc1nc3ccccc3n1-c1ccccc1)C2	8.1	≥ 100	16	3.05	9	11	17	Dose-Dependent Effect	inactive								
c1ccc(-n2c(O[C@H]3CN4CCC3CC4)nc3ccccc32)cc1	2.6	≥ 100	70	1.2	16	9.4	3.7			1.4	1.4	1.4	1.4				
